PubChem BioAssay AID2060483 (Molecular Pharmacology Branch, DTP, NCI, 2025)

System: K24384-001-R-PDC complex spheroids, viability
Assay: Anticancer human tumor K24384-001-R-PDC patient-derived pancreatic adenocarcinoma cell line growth inhibition [GQUAD]
Settings: for IC50: curve of first compound; for viability, T/C: stronger effect = lower value; active = viability on the fitted dose curve at most 10% of control; inactive = the rest
Method in brief: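 Viability of tumor cells grown as complex spheroids with endothelial and stromal cells, exposed to drug combinations. Top concentration at or near clinical Cmax (else 10 microM), diluted in half-log increments.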

[1] = second compound 0.0316 µM, first compound 0.0316 µM
[2] = second compound 0.0316 µM, first compound 0.1 µM
[3] = second compound 0.0316 µM, first compound 0.316 µM
[4] = second compound 0.0316 µM, first compound 1 µM
[5] = second compound 0.0316 µM, first compound 3.16 µM
[6] = second compound 0.0316 µM, first compound 10 µM
[7] = second compound 0.1 µM, first compound 0.0316 µM
[8] = second compound 0.1 µM, first compound 0.1 µM
[9] = second compound 0.1 µM, first compound 0.316 µM
[10] = second compound 0.1 µM, first compound 1 µM
[11] = second compound 0.1 µM, first compound 3.16 µM
[12] = second compound 0.1 µM, first compound 10 µM
[13] = second compound 0.316 µM, first compound 0.0316 µM
[14] = second compound 0.316 µM, first compound 0.1 µM
[15] = second compound 0.316 µM, first compound 0.316 µM
[16] = second compound 0.316 µM, first compound 1 µM
[17] = second compound 0.316 µM, first compound 3.16 µM
[18] = second compound 0.316 µM, first compound 10 µM
[19] = second compound 1 µM, first compound 0.0316 µM
[20] = second compound 1 µM, first compound 0.1 µM
[21] = second compound 1 µM, first compound 0.316 µM
[22] = second compound 1 µM, first compound 1 µM
[23] = second compound 1 µM, first compound 3.16 µM
[24] = second compound 1 µM, first compound 10 µM
[25] = second compound 3.16 µM, first compound 0.0316 µM
[26] = second compound 3.16 µM, first compound 0.1 µM
[27] = second compound 3.16 µM, first compound 0.316 µM
[28] = second compound 3.16 µM, first compound 1 µM
[29] = second compound 3.16 µM, first compound 3.16 µM
[30] = second compound 3.16 µM, first compound 10 µM
[31] = second compound 10 µM, first compound 0.0316 µM
[32] = second compound 10 µM, first compound 0.1 µM
[33] = second compound 10 µM, first compound 0.316 µM
[34] = second compound 10 µM, first compound 1 µM
[35] = second compound 10 µM, first compound 3.16 µM
[36] = second compound 10 µM, first compound 10 µM
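Also: spheroids exposed to compounds for seven days.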

C#Cc1c(F)ccc2cc(O)cc(-c3ncc4c(N5CC6CCC(C5)N6)nc(OCC56CCCN5CC(F)C6)nc4c3F)c12 (stereo unspecified) + CN(C)c1ccc(Nc2c3ccc(NC(=O)CCN4CCCC4)cc3nc3cc(NC(=O)CCN4CCCC4)ccc23)cc1
1.69 µM: IC50 (second compound 0.1 µM)
1.78 µM: IC50 (second compound 1 µM)
1.05 µM: IC50 (second compound 0.0316 µM)
inactive: viability, T/C [1] 101% | viability, T/C [2] 84.6% | viability, T/C [3] 68.1% | viability, T/C [4] 51.5% | viability, T/C [5] 32.5% | viability, T/C [6] 14.4% | viability, T/C [7] 109% | viability, T/C [8] 105% | viability, T/C [9] 78.2% | viability, T/C [10] 63.9% | viability, T/C [11] 36.1% | viability, T/C [12] 16% | viability, T/C [13] 87.7% | viability, T/C [14] 108% | viability, T/C [15] 85% | viability, T/C [16] 61.5% | viability, T/C [17] 31.1% | viability, T/C [18] 20.1% | viability, T/C [19] 104% | viability, T/C [20] 82.1% | viability, T/C [21] 90.4% | viability, T/C [22] 58.1% | viability, T/C [23] 38.7% | viability, T/C [24] 17.6% | viability, T/C [25] 89.3% | viability, T/C [26] 85.8% | viability, T/C [27] 92.3% | viability, T/C [28] 61.9% | viability, T/C [29] 35.5% | viability, T/C [30] 14.4% | viability, T/C [31] 92.5% | viability, T/C [32] 77% | viability, T/C [33] 68.5% | viability, T/C [34] 55.1% | viability, T/C [35] 30.1%
1.75 µM: IC50 (second compound 3.16 µM)
1.52 µM: IC50 (second compound 0.316 µM)
1.12 µM: IC50 (second compound 10 µM)
active: viability, T/C [36] 7.21%

O=C(NO)c1cnc(N2CCN(S(=O)(=O)c3ccc4ccccc4c3)CC2)nc1 + Cc1cnc(CNC(=O)c2c(=O)c3ccc(N4CCCN(C)CC4)nc3n3c2sc2ccccc23)cn1
0.151 µM: IC50 (second compound 0.316 µM)
active: viability, T/C [4] 0.9% | viability, T/C [5] 0.08% | viability, T/C [6] 0.11% | viability, T/C [10] 1.11% | viability, T/C [11] 0.09% | viability, T/C [12] 0.11% | viability, T/C [16] 0.16% | viability, T/C [17] 0.07% | viability, T/C [18] 0.09% | viability, T/C [22] 0.12% | viability, T/C [23] 0.07% | viability, T/C [24] 0.11% | viability, T/C [28] 0.12% | viability, T/C [29] 0.1% | viability, T/C [30] 0.14% | viability, T/C [31] 0.16% | viability, T/C [32] 0.23% | viability, T/C [33] 0.19% | viability, T/C [34] 0.16% | viability, T/C [35] 0.17% | viability, T/C [36] 0.16%
inactive: viability, T/C [1] 86.3% | viability, T/C [2] 78% | viability, T/C [3] 77.2% | viability, T/C [7] 65.2% | viability, T/C [8] 78.7% | viability, T/C [9] 51.2% | viability, T/C [13] 42.7% | viability, T/C [14] 73% | viability, T/C [15] 35.8% | viability, T/C [19] 38.9% | viability, T/C [20] 43.9% | viability, T/C [21] 31.3% | viability, T/C [25] 33.3% | viability, T/C [26] 34.1% | viability, T/C [27] 16.3%
0.325 µM: IC50 (second compound 0.1 µM)
< 0.0316 µM: IC50 (second compound 1 µM) | IC50 (second compound 3.16 µM) | IC50 (second compound 10 µM)
0.477 µM: IC50 (second compound 0.0316 µM)

COc1ccc([C@@H](O)c2cc(-c3ncnc4cc(N5CCOCC5)ccc34)c(F)cc2Cl)nn1 + CN(C)c1ccc(Nc2c3ccc(NC(=O)CCN4CCCC4)cc3nc3cc(NC(=O)CCN4CCCC4)ccc23)cc1
2.6 µM: IC50 (second compound 0.1 µM)
1.93 µM: IC50 (second compound 1 µM)
2.1 µM: IC50 (second compound 0.0316 µM)
1.61 µM: IC50 (second compound 0.316 µM)
1.08 µM: IC50 (second compound 10 µM)
2.54 µM: IC50 (second compound 3.16 µM)
inactive: viability, T/C [1] 98.6% | viability, T/C [2] 86.4% | viability, T/C [3] 81.2% | viability, T/C [4] 58.7% | viability, T/C [5] 44.3% | viability, T/C [6] 36.5% | viability, T/C [7] 89.5% | viability, T/C [8] 96.5% | viability, T/C [9] 102% | viability, T/C [10] 76.6% | viability, T/C [11] 45.9% | viability, T/C [12] 34.9% | viability, T/C [13] 91.4% | viability, T/C [14] 109% | viability, T/C [15] 83.8% | viability, T/C [16] 56.8% | viability, T/C [17] 42.5% | viability, T/C [18] 25.8% | viability, T/C [19] 82.1% | viability, T/C [20] 83.1% | viability, T/C [21] 84.8% | viability, T/C [22] 62.4% | viability, T/C [23] 40.3% | viability, T/C [24] 23.4% | viability, T/C [25] 91.9% | viability, T/C [26] 95.4% | viability, T/C [27] 72.2% | viability, T/C [28] 75.5% | viability, T/C [29] 42.4% | viability, T/C [30] 22.5% | viability, T/C [31] 67.3% | viability, T/C [32] 73.6% | viability, T/C [33] 72.3% | viability, T/C [34] 44.3% | viability, T/C [35] 34.3% | viability, T/C [36] 12.3%
